Source: ChEMBL document CHEMBL2074519, “Molecular evidence and functional expression of a novel drug efflux pump (ABCC2) in human corneal epithelium and rabbit cornea and its role in ocular drug efflux” (Int J Pharm, 2006)

Tests used:
[1] = target: T1, ATP-binding cassette sub-family C member 2 (Homo sapiens, UniProt Q92887); experiment: TP_TRANSPORTER: increase cell accumulation of erythromycin in hMRP2-expressing MDCK2 cells; type: functional, cell-based; details: dog, mdck-ii
[2] = target: T1, ATP-binding cassette sub-family C member 2; experiment: TP_TRANSPORTER: increase cell accumulation of cyclosporine-A in hMRP2-expressing MDCK2 cells; type: functional, cell-based; details: dog, mdck-ii

T1 sequence (Q92887 whole entry): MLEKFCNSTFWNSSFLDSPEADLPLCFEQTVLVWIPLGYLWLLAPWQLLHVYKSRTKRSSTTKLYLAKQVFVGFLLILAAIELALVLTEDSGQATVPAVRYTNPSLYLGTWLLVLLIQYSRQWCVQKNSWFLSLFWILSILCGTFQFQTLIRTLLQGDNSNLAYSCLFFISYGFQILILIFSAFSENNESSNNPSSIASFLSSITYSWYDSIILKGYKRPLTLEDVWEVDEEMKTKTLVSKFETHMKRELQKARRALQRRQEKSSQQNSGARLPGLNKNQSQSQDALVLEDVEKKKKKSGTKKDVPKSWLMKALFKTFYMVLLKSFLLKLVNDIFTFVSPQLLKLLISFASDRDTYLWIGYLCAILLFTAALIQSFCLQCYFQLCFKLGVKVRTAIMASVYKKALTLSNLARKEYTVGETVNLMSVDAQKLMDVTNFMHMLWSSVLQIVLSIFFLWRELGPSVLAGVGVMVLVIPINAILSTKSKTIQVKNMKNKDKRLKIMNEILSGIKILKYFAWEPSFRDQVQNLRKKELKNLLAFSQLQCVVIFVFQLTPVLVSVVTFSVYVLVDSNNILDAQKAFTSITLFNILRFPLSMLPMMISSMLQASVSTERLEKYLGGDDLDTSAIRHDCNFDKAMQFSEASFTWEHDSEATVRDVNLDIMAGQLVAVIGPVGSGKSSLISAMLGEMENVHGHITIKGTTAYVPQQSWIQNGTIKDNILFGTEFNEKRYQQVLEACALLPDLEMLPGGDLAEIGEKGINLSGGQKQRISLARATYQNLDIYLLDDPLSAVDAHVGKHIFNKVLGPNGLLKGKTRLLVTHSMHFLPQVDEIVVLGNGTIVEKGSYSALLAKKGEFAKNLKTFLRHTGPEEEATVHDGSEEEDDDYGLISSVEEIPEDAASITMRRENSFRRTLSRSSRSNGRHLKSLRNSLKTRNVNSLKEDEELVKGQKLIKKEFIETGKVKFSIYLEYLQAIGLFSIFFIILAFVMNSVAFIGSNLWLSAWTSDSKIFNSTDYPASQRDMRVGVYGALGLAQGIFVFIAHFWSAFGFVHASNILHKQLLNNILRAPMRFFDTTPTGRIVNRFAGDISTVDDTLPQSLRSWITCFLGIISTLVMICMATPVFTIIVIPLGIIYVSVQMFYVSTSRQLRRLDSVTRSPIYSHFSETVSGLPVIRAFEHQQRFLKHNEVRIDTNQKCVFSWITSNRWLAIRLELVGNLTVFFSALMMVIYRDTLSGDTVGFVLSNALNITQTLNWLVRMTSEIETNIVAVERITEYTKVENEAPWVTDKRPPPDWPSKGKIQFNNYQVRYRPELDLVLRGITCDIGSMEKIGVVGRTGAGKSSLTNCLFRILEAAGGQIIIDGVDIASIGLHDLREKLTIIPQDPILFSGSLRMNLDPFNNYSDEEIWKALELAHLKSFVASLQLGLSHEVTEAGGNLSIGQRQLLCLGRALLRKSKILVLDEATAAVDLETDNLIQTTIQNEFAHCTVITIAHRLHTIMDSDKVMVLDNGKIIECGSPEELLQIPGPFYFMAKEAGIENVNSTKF

Activity [1]: 195%
Activity [2]: 156%
Compound: CN(C)C(=O)CCSC(SCCC(=O)O)c1cccc(/C=C/c2ccc3ccc(Cl)cc3n2)c1 (configuration not stated) [MK-571]
